{"source": "patent US4764590A", "about": "“Des-19-leucine, 20-glutamine, 21-threonine-calcitonin” (Rorer Pharmaceutical Corporation, priority 1987, dated 1988)", "key": {"[1]": {"system": "serum calcium concentration", "assay": "Biological assay of calcitonin analogs in vivo: reduction of serum calcium concentration, 2×2 parallel line assay", "details": "rats, subcutaneous injection, blood withdrawn 1 hour later, versus synthetic salmon calcitonin standard", "procedure": "Biological Assay of Calcitonin Analogs in Vivo\nThe biological potency of des-19-leucine, 20-glutamine, 21-threonine-salmoncalcitonin was determined by comparing the reduction of serum calcium concentration which followed administration by graded doses of des-Leu^19, Gln^20, Thr^21 -SCT and synthetic salmon calcitonin standard. Rats were divided into four groups of seven animals, and each group was assigned at random to a dose of standard or test solution. Low and high doses were chosen from the linear portion of the dose-response curve. For the salmon calcitonin standard, the values were 0.7 and 2.1 ng. peptide/100 g. body weight (BW). This dose approximates 3 and 9 MU/100 g. BW. Peptides were given by subcutaneous injection (0.2 ml/100 g. BW) and blood was withdrawn 1 hour later for serum calcium determination. Sera are processed and analyzed within two hours of collection. […]. Results were analyzed by a 2×2 parallel line assay [Gaddum, J. H., J. Pharm. Pharmacol., 6, 345 (1953)]. The standard salmon calcitonin used was independently determined to contain greater than 4,000 IU/mg. des-Leu^19, Gln^20, Thr^21 -SCT assayed at 7100 IU/mg."}, "[2]": {"details": "Monikawa et al., Experientia 32(9), 1104-1106 (1976); cited from earlier work"}, "[3]": {"system": "serum calcium concentration", "details": "standard used in the rat assay; cited from earlier work"}}, "note": "Where a SMILES comes first, the peptide text is derived from it."}
{"compound": "CC(C)C[C@H](NC(=O)[C@H](CCCCN)NC(=O)CNC(=O)[C@H](CC(C)C)NC(=O)[C@@H](NC(=O)[C@@H]1CSSC[C@H](N)C(=O)N[C@@H](CO)C(=O)N[C@@H](CC(N)=O)C(=O)N[C@@H](CC(C)C)C(=O)N[C@@H](CO)C(=O)N[C@@H]([C@@H](C)O)C(=O)N1)C(C)C)C(=O)N[C@@H](CO)C(=O)N[C@@H](CCC(N)=O)C(=O)N[C@@H](CCC(=O)O)C(=O)N[C@@H](CC(C)C)C(=O)N[C@@H](Cc1c[nH]cn1)C(=O)N[C@@H](CCCCN)C(=O)N[C@@H](Cc1ccc(O)cc1)C(=O)N1CCC[C@H]1C(=O)N[C@@H](CCCNC(=N)N)C(=O)N[C@H](C(=O)N[C@@H](CC(N)=O)C(=O)N[C@H](C(=O)NCC(=O)N[C@@H](CO)C(=O)NCC(=O)N[C@H](C(=O)N1CCC[C@H]1C(N)=O)[C@@H](C)O)[C@@H](C)O)[C@@H](C)O", "note": "[des-Leu^19, Gln^20, Thr^21 -SCT, des-19-leucine, 20-glutamine, 21-threonine-salmon calcitonin] (HELM PEPTIDE1{C.S.N.L.S.T.C.V.L.G.K.L.S.Q.E.L.H.K.Y.P.R.T.N.T.G.S.G.T.P.[am]}$PEPTIDE1,PEPTIDE1,1:R3-7:R3$$$V2.0)", "values": [{"measurement": "biological potency (reduction of serum calcium concentration)", "setting": "[1]", "result": 7100, "unit": "IU/mg"}]}
{"compound": "(1,7-alpha-L-amino-suberic acid) eel calcitonin", "values": [{"measurement": "hypocalcemic potency", "setting": "[2]", "result": "about 3400 IU/mg."}]}
{"compound": "Salmon calcitonin [standard salmon calcitonin]", "values": [{"measurement": "potency of the standard salmon calcitonin, independently determined", "setting": "[3]", "result": "greater than 4,000 IU/mg"}]}
{"compound": "eel calcitonin [synthetic eel calcitonin]", "values": [{"measurement": "hypocalcemic potency", "setting": "[2]", "result": "around 4300 IU/mg."}]}
